These results are taken from publication PMC4063723, “Mechanisms of Pyrethroid Resistance in the Dengue Mosquito Vector, Aedes aegypti: Target Site Insensitivity, Penetration, and Metabolism” (PLoS Neglected Tropical Diseases, 2014).

Where a chain is given by its changes, count along the chain named.

What all share (assay): HPTLC autoradiography of metabolites, insect-cell microsomes
Common to all, as to type: biochemical
What all share (settings): NADPH, pH 7.5, 25 C, co-expressed reductase and b5; labelled compound; product 4'-HO-permethrin

In one experiment the target is T1, CYP6BB2 (Aedes aegypti, UniProt Q16F58).
T1 construct: gene 5565578; full-length cDNA from SP strain, baculovirus/Sf9 (expressSF+) microsomes, co-expressed with A. aegypti P450 reductase and cytochrome b5; with NADPH--cytochrome P450 reductase; Cytochrome b5
T1 sequence (Q16F58 1-507): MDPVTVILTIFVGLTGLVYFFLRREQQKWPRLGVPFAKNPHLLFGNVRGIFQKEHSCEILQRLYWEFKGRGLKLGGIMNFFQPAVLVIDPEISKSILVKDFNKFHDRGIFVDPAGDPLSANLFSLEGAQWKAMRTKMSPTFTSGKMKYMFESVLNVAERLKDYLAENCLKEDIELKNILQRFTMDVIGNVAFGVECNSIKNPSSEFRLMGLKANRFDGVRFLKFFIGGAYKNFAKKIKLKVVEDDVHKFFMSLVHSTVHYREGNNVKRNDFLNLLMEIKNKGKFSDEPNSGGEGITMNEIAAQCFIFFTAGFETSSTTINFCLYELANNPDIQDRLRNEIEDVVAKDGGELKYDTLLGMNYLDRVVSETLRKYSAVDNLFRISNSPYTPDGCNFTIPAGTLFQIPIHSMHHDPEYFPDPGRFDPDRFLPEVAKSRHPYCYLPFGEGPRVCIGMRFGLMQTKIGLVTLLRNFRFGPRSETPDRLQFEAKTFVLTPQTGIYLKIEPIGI

The next experiment addresses T2, CYP9M6v1 (Aedes aegypti, UniProt X5I1U9).
T2 construct: full-length cDNA from SP strain (533 residues), baculovirus/Sf9 (expressSF+) microsomes, co-expressed with A. aegypti P450 reductase and cytochrome b5; with NADPH--cytochrome P450 reductase; Cytochrome b5
T2 sequence (X5I1U9 1-533): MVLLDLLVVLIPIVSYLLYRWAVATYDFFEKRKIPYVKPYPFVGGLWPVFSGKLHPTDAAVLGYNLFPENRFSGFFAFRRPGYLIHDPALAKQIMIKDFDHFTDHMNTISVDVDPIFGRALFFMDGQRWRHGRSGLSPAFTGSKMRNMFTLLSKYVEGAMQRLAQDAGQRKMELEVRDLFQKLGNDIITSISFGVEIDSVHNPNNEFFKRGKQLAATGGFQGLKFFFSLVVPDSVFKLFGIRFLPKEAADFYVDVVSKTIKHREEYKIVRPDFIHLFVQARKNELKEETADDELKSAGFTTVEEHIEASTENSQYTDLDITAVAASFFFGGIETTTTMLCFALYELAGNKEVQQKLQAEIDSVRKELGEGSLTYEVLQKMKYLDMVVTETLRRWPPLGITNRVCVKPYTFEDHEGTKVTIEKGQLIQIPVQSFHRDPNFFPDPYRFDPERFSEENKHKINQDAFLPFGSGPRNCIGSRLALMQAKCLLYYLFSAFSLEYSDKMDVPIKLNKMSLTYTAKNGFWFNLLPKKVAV

For the next experiment, the target named is T3, CYP9M6v2 (Aedes aegypti, UniProt X5HYQ8).
T3 construct: full-length cDNA from SP strain (533 residues), baculovirus/Sf9 (expressSF+) microsomes, co-expressed with A. aegypti P450 reductase and cytochrome b5; with NADPH--cytochrome P450 reductase; Cytochrome b5
T3 sequence (X5HYQ8 1-533): T2 sequence (X5I1U9 1-533) with R170G, V176I, G348E, G370D, V376M, L527V, K530R

As for `CC1(C)C(C=C(Cl)Cl)C1C(=O)OCc1cccc(Oc2ccccc2)c1` (stereo not drawn) [[14C]-(1RS)-trans-permethrin], the “HPTLC autoradiography of metabolites, insect-cell microsomes” value is “CYP6BB2 exhibited strong metabolic activity for permethrin” on CYP6BB2; “Both CYP9M6v1 and CYP9M6v2 demonstrated relatively low but consistent permethrin metabolism” on CYP9M6v1; “Both CYP9M6v1 and CYP9M6v2 demonstrated relatively low but consistent permethrin metabolism” on CYP9M6v2.
